Reference: US6818212B2, “Antimicrobial composition containing a haloperoxidase, a hydrogen peroxide source, a halide source and an ammonium source” (Novozymes A/S, priority 1997, dated 2004)

Key:
Type in all cases: cell-based
[1] = system: Staphylococcus epidermidis DSM 20 042; assay: Bactericidal activity of haloperoxidase with iodide or bromide, with or without NH4+, Example 2; conditions: haloperoxidase 1 mg/l
Method: (§1) The bactericidal activity was determined by incubation in Malthus. The detection times measured by the Malthus instrument were converted to cfu/ml by a calibration curve.
(§2) Either direct or indirect Malthus measurements were used when enumerating total survival cells (Malthus Flexi M2060, Malthus Instrument Limited). By the direct measurements, the cell metabolism was determined by conductance measurements in the growth substrate. By the indirect measurements, 3 ml of growth medium was transferred to the outer chamber of the indirect Malthus cells, and 0.5 ml of sterile KOH (0.1 M) was transferred to the inner chamber. The cell suspensions were after enzyme treatment transferred to the outer chamber of the Malthus cell. As cells are growing in the outer chamber they produce CO2 which will dissolve in the KOH in the inner chamber and thereby change the conductance of the KOH. The amount of CO2 formed by the respiring cells surviving the enzyme treatment was used for estimating the number of viable cells. When the conductance change is measurable by the Malthus, a detection time (dt) will be recorded. The dt's were converted to colony counts by use of a calibration curve relating cfu/ml to dt (FIG. 1).
The antibacterial activity of a haloperoxidase (1 mg/l) was tested in MES-buffer (2-[N-morpholino] ethanesulfonic acid) (pH 6.0) against Staphylococcus epidermidis DSM 20 042 with potassium iodide and potassium bromide as electron donor, and hydrogen peroxide (to a final concentration of 0.5 mM) was added as electron acceptor in the presence of NH4^+. The cells (approximately 10^6 cfu/ml) were incubated with enzyme for 15 min at 40° C. The bactericidal activity was determined by incubation in Malthus (see Example 1).

[2] = system: Staphylococcus epidermidis DSM 20 042; assay: Bactericidal activity of haloperoxidase with ammonium halides vs potassium/sodium halides as electron donors, Example 3; conditions: for Log reduction in cell number: haloperoxidase 1 mg/l, 0.5 mM H2O2, pH 6.0, 15 min 40° C.; for bactericidal activity (possible): ammonium halide salt as electron donor, summary of Table 1
Method: as §1, §2
The antibacterial activity of a haloperoxidase (1 mg/l) was tested in MES-buffer (2-[N-morpholino] ethanesulfonic acid) (pH 6.0) against Staphylococcus epidermidis DSM 20 042 with ammonium iodide, ammonium chloride or ammonium bromide as electron donors, and hydrogen peroxide was added as electron acceptor giving the final concentration 0.5 mM. The cells (approximately 10^6 cfu/ml) were incubated with enzyme for 15 min at 40° C. The bactericidal activity was determined by incubation in Malthus (see Example 1).

[3] = system: Staphylococcus epidermidis DSM 20 042; assay: Bactericidal activity of haloperoxidase with chloride and ethanolamine, HEPES pH 7.0, Example 4; conditions: haloperoxidase 1 mg/L, chloride 80 mM, ethanolamine 2.5 mM, 0.5 mM H2O2, pH 7.0
Method: as §1
as §2, with “The amount of CO2 formed by the respiring cells surviving the enzyme treatment was used for estimating the number of viable cells.” left out, “The dt's were converted to colony counts by use of a calibration curve relating cfu/ml to dt (FIG. 1).” left out
The antibacterial activity of Curvularia verruculosa haloperoxidase (1 mg/L) was tested in HEPES-buffer (Sigma H3375)(pH 7.0) against Staphylococcus epidermidis DSM 20 042 with chloride (80 mM) as electron donor combined with ethanolamine (2.5 mM), and hydrogen peroxide was added as electron acceptor giving the final concentration 0.5 mM. […] The bactericidal activity was determined by incubation in Malthus (see Example 1).

[4] = system: Staphylococcus epidermidis DSM 20 042; assay: Bactericidal activity of haloperoxidase (rCvP) system, Malthus detection, Example 1; conditions: haloperoxidase 1 mg/l, 0.5 mM H2O2, pH 6
Method: (§3) The antibacterial activity of a haloperoxidase was tested in MES-buffer (2-[N-morpholino] ethanesulfonic acid)(pH 6.0) against Pseudomonas aeruginosa ATCC 10146 and Staphylococcus epidermidis DSM 20 042 with sodium chloride as electron donor, and hydrogen peroxide was added as electron acceptor in the presence of NH4+. The cells (approximately 10^6 cfu/ml) were incubated with the enzyme for 15 min at 40° C.
as §1, §2
(§4) Hydrogen peroxide was added to a final concentration of 0.5 mM.

[5] = system: Pseudomonas aeruginosa ATCC 10146; assay: as above; conditions: haloperoxidase 1 mg/l, 0.5 mM H2O2, pH 6
Method: as §3, §1, §2, §4

[6] = 0.5 mM H2O2, pH 6.0, no ammonium

Which results are given for [I-].[K+] [KI, potassium iodide]?
iodide concentration for 100% bactericidal activity ([1]; 0.5 mM H2O2, pH 6.0, ammonium added (FIG. 3)): 0.05-0.1 mm; iodide concentration for 100% antibacterial activity [1, 6]: about 0.2 mM; Log reduction in cell number ([2]; halide 0.25 mM): 5.1 log cfu/ml; Log reduction in cell number ([2]; halide 0.5 mM): 6.1 log cfu/ml

For NCCO [ethanolamine], which kill [3] is on record?
Its kill is 100%.

How did the “bactericidal activity (possible)” value [2] turn out when I.N [INH4, ammonium iodide] was run?
The value was 100%.

And the “Log reduction in cell number” value ([2]; halide 0.21 mM)?
The value was 6.2 log cfu/ml.

What about the “Log reduction in cell number” value ([2]; halide 0.5 mM) of the same compound?
Its value is 6.2 log cfu/ml.

Which “bromide concentration needed for 100% bactericidal activity” value [1, 6] does the source give for [Br-].[K+] [KBr, potassium bromide] here?
The value was > 10 mM.

And the “Log reduction in cell number” value ([2]; halide 4 mM)?
The value was 2.8 log cfu/ml.

What about the “Log reduction in cell number” value ([2]; halide 8 mM) of the same compound?
The value was 5.4 log cfu/ml.

Which results are given for Cl.N [ClNH4, ammonium chloride]?
bactericidal activity (possible) [2]: 100%; Log reduction in cell number ([2]; halide 25 mM): 6.2 log cfu/ml; Log reduction in cell number ([2]; halide 50 mM): 6.2 log cfu/ml

With [Cl-].[Na+] [NaCl, sodium chloride] as the compound, how does the “NaCl concentration at which antibacterial activity was observed” value [4] read?
The value was “above 20 mM”.

What about the “NaCl concentration at which plateau of antibacterial activity was reached” value [4] of the same compound?
Its value is “approximately 100 mM”.

What about the “NaCl concentration at which antibacterial activity was observed” value [5] of the same compound?
The value was “above 20 mM”.

And the “NaCl concentration at which plateau of antibacterial activity was reached” value [5]?
Its value is “approximately 100 mM”.

What about the “Log reduction in cell number” value ([2]; halide 25 mM) of the same compound?
Its value is 0.5 log cfu/ml.

And the “Log reduction in cell number” value ([2]; halide 50 mM)?
The value was 0.8 log cfu/ml.

Which “bactericidal activity (possible)” value [2] does the source give for Br.N [BrNH4, ammonium bromide] here?
Its value is 100%.

What about the “Log reduction in cell number” value ([2]; halide 4 mM) of the same compound?
The value was 3.7 log cfu/ml.

What about the “Log reduction in cell number” value ([2]; halide 8 mM) of the same compound?
Its value is 6.2 log cfu/ml.
